ChEMBL document CHEMBL1141460, “Sodium channel blockers” (J Med Chem, 2007)

Experiments:
[1] = molecular target: Sodium channel protein type 10 subunit alpha (Homo sapiens, UniProt Q9Y5Y9); assay: Binding affinity to Nav1.8 sodium channel
[2] = molecular target: Sodium channel protein type 9 subunit alpha (Homo sapiens, UniProt Q15858); assay: Binding affinity to Nav1.7 sodium channel
Rattus norvegicus [3] = species: Rattus norvegicus; assay: Effect on […] in rat by rotarod test; format: functional
[4] = molecular target: Sodium channel protein type 2 subunit alpha (Homo sapiens, UniProt Q99250); assay: Inhibition of inactivated human Nav1.2 sodium channel
Rattus norvegicus [5] = assay: Analgesic activity in ip dosed rat by CCI model of neuropathic pain; format: functional
Rattus norvegicus [6] = assay: Analgesic activity in ip dosed rat by chung model of neuropathic pain; format: functional
[7] = molecular target: Sodium channel protein type 5 subunit alpha (Homo sapiens, UniProt Q14524); assay: Inhibition of inactivated human Nav1.5 sodium channel
Rattus norvegicus [8] = species: Rattus norvegicus; assay: Effect on locomotor activity in rat; format: functional

Chain of Sodium channel protein type 10 subunit alpha (Q9Y5Y9 whole entry): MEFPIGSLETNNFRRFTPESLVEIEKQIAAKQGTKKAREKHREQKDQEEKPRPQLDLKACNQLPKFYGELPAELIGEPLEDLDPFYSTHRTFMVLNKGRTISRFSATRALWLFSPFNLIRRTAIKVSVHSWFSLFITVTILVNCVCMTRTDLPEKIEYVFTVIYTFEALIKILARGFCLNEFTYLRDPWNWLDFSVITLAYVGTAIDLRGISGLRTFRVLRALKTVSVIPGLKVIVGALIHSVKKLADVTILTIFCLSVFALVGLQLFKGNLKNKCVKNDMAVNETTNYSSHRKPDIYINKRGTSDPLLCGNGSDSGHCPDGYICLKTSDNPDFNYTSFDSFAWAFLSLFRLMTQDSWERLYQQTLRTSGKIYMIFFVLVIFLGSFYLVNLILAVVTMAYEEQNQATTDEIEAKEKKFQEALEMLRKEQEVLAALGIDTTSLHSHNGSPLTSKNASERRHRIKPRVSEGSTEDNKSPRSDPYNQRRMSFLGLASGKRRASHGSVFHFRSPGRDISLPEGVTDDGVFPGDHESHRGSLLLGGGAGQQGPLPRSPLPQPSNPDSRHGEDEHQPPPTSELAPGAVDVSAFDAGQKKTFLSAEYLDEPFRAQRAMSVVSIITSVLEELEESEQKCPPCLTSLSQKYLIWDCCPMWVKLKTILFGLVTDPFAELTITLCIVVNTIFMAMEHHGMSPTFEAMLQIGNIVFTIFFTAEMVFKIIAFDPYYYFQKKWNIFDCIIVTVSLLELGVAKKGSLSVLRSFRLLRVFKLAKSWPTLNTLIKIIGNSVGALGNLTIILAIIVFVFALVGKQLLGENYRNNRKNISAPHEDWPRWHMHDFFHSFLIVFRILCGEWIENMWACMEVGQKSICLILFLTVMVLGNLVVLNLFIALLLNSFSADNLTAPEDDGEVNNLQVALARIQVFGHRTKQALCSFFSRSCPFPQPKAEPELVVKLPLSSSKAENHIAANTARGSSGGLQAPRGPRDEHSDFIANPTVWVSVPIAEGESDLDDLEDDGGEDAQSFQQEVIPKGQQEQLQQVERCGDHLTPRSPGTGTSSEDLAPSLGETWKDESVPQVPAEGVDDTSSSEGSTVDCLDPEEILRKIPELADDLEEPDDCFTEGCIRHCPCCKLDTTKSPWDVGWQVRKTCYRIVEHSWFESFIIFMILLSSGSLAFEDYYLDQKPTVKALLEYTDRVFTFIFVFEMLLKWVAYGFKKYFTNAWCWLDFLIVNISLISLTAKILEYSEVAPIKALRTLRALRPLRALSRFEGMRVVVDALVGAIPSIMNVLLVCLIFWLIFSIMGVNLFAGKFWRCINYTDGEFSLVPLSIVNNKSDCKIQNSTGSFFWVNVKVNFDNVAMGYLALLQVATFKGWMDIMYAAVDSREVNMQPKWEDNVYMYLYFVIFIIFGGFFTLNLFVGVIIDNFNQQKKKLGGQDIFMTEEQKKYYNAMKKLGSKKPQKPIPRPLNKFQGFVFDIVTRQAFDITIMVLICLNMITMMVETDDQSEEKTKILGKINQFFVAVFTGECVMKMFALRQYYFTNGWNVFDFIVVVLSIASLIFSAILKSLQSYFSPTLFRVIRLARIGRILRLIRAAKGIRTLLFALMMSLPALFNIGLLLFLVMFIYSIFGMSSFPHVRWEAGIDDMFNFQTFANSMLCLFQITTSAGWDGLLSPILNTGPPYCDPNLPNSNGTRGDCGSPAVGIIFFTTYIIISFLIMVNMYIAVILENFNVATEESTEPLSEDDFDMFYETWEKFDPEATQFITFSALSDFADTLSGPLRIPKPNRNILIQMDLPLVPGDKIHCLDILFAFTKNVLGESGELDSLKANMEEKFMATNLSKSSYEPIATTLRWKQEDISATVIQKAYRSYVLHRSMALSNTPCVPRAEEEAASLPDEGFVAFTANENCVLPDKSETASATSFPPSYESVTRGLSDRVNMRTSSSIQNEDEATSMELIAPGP
Chain of Sodium channel protein type 5 subunit alpha (Q14524 whole entry): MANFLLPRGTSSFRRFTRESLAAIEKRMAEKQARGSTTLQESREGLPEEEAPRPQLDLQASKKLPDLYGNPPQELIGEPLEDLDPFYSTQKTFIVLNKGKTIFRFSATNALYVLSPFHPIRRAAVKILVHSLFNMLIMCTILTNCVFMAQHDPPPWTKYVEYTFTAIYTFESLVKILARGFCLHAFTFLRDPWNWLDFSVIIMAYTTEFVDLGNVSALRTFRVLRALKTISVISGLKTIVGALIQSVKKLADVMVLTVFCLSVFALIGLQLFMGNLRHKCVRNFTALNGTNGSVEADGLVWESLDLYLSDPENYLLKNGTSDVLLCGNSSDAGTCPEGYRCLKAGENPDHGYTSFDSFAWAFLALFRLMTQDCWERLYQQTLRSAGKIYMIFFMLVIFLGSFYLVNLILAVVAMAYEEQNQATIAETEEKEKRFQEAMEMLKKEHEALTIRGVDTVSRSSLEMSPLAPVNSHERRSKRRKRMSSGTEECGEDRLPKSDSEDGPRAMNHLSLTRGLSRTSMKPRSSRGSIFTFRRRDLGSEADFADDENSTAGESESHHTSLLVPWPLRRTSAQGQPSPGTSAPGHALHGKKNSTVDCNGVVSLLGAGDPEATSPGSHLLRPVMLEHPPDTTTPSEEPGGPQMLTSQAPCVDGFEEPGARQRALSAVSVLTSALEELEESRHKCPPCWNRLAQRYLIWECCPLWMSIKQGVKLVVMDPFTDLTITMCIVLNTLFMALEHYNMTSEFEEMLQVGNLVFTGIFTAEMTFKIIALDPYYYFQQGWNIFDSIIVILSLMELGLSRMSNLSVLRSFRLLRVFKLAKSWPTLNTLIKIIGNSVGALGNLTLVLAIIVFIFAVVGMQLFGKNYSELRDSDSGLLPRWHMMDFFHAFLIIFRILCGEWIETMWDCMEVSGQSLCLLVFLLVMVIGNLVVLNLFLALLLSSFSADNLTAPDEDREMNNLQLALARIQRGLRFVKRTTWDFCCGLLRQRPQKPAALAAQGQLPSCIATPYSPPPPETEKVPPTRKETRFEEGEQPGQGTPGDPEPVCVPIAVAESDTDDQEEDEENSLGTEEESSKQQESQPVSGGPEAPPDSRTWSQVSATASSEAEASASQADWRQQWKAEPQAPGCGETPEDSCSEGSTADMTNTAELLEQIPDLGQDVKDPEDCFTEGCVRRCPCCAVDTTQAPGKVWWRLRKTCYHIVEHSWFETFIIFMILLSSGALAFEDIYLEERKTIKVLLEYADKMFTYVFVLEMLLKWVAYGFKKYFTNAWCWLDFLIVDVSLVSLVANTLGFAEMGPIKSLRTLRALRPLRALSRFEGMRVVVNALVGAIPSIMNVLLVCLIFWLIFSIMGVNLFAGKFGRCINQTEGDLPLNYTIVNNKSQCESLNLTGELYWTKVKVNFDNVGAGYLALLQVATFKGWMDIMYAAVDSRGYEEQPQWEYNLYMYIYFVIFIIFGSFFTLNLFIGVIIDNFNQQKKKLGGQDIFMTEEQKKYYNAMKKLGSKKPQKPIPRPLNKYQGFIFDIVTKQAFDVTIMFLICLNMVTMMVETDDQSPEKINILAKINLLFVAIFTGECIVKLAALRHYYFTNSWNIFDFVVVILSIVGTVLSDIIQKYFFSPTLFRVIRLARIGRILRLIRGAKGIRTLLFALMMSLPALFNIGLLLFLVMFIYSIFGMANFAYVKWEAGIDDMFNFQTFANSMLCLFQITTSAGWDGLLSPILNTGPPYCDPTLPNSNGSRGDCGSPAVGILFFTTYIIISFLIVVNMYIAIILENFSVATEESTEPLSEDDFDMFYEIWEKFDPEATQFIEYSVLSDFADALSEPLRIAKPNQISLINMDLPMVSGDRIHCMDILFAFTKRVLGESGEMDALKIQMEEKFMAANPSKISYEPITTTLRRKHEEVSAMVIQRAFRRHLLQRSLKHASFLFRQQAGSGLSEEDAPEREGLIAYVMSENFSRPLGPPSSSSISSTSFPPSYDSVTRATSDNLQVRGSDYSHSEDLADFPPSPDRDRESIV

Row | Structure (SMILES) | Ki [1] [µM] | Ki [2] [µM] | ED50 (Rattus norvegicus [3]) [µM] | IC50 [4] [µM] | ED50 (Rattus norvegicus [5]) [µM] | ED50 (Rattus norvegicus [6]) [µM] | IC50 [7] [µM] | ED50 (Rattus norvegicus [8]) [µM]
1 | CN(Cc1ccc(-c2ccccc2S(N)(=O)=O)cc1)C(=O)[C@@H]1CCC[C@H]1C(=O)NCc1ccc(OC(F)(F)F)cc1 | 0.18 | 0.25 | – | – | – | – | – | –
2 | COc1cc(NC(=O)c2ccc(-c3ccc(Cl)cc3)o2)cc(OC)c1 | – | – | >300 | 7.18 | 86 | 47 | 7.44 | >300
